Measurements: patent publication US4965280A, “Antifungal carbinols” (E. I. Du Pont de Nemours and Company, priority 1989, dated 1990)

Key:
RICE INDICA TOL = assay: Test C rice paddy; type: in vivo; conditions: 21 days
Method in brief: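 Transplanted paddy test in flooded silt loam: Japonica and Indica rice at 2.0–2.5 leaf stage, water plantain, Scirpus and Cyperus seedlings or sprouted tubers, barnyardgrass from seed. Water raised to 3 cm 3–4 days after planting; compound in nonphytotoxic solvent added to paddy water within 24 h. Greenhouse.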

BRDLF SNGLGRASS = assay: Test F; type: in vivo, Brachiaria platyphylla
From the text: (§1) Weed species were planted 3 or 4 per 15-cm diameter pot in Sassafras sandy loam (pH 6.8; 1% OM). Cotton was planted separately in the same sized pot. Postemergence plantings were made 12-16 days prior to treating so plants were in the 2- to 3-leaf stage (5-12 cm tall). Preemergence plantings were made the day before treating. Compounds were sprayed in a suitable non-phytotoxic solvent at 374 l/ha, then after 3 weeks of growth in a greenhouse, plant responses were visually rated on a percent scale where 0=no injury and 100=plant death.

LAMBSQUARTER = assay: Test F; type: in vivo, Chenopodium album
From the text: as §1

LADY SMARTWEED = assay: Test F; type: in vivo, Polygonum persicaria
From the text: as §1

FALL PANICUM = assay: Test F; type: in vivo, Panicum dichotomiflorum
From the text: as §1

LARGE CRABGRASS = assay: Test F; type: in vivo, Digitaria sanguinalis
From the text: as §1

## C=C(c1ccccc1Cl)C(O)(Cn1cncn1)c1ccc(F)cc1F (centres unmarked) [Example 35]
RICE INDICA TOL; 0032 G/HA
  plant response: 0
RICE INDICA TOL; 0125 G/HA
  plant response: 55
RICE INDICA TOL; 0500 G/HA
  plant response: 55
RICE INDICA TOL; 2000 G/HA
  plant response: 60

## C=C(c1ccc(F)cc1)C(O)(Cn1cncn1)c1ccc(F)cc1F (centres unmarked) [Example 4, 2-(2,4-Difluorophenyl)-3-(4-fluorophenyl)-1-(1H-1,2,4-triazol-1-yl)-3-buten-2-ol]
BRDLF SNGLGRASS; PREEMERGENCE 0032 GM/HA
  plant response: 0%
BRDLF SNGLGRASS; PREEMERGENCE 0064 GM/HA
  plant response: 0%
BRDLF SNGLGRASS; PREEMERGENCE 0125 GM/HA
  plant response: 0%
BRDLF SNGLGRASS; PREEMERGENCE 0250 GM/HA
  plant response: 0%
BRDLF SNGLGRASS; PREEMERGENCE 0500 GM/HA
  plant response: 30%
LAMBSQUARTER; PREEMERGENCE 0032 GM/HA
  plant response: 0%
LAMBSQUARTER; PREEMERGENCE 0064 GM/HA
  plant response: 20%
LAMBSQUARTER; PREEMERGENCE 0125 GM/HA
  plant response: 20%
LAMBSQUARTER; PREEMERGENCE 0250 GM/HA
  plant response: 60%
LAMBSQUARTER; PREEMERGENCE 0500 GM/HA
  plant response: 70%
LADY SMARTWEED; PREEMERGENCE 0032 GM/HA
  plant response: 0%
LADY SMARTWEED; PREEMERGENCE 0064 GM/HA
  plant response: 0%
LADY SMARTWEED; PREEMERGENCE 0125 GM/HA
  plant response: 0%
LADY SMARTWEED; PREEMERGENCE 0250 GM/HA
  plant response: 20%
LADY SMARTWEED; PREEMERGENCE 0500 GM/HA
  plant response: 20%
FALL PANICUM; PREEMERGENCE 0032 GM/HA
  plant response: 90%
FALL PANICUM; PREEMERGENCE 0064 GM/HA
  plant response: 90%
FALL PANICUM; PREEMERGENCE 0125 GM/HA
  plant response: 90%
FALL PANICUM; PREEMERGENCE 0250 GM/HA
  plant response: 100%
FALL PANICUM; PREEMERGENCE 0500 GM/HA
  plant response: 100%
LARGE CRABGRASS; PREEMERGENCE 0032 GM/HA
  plant response: 0%
LARGE CRABGRASS; PREEMERGENCE 0064 GM/HA
  plant response: 20%
LARGE CRABGRASS; PREEMERGENCE 0125 GM/HA
  plant response: 100%
LARGE CRABGRASS; PREEMERGENCE 0250 GM/HA
  plant response: 100%
LARGE CRABGRASS; PREEMERGENCE 0500 GM/HA
  plant response: 100%
